16 molecules from patent US5089504A, “Substituted 4-aminoquinoline derivatives as gastric acid secretion inhibitors” (SmithKline Beckman Intercredit B.V., priority 1988, dated 1992) can be followed below.

Where a name gives a salt, the structure may show the parent alone.

The test system of test [1] is pentagastrin stimulated gastric acid secretion. Put plainly: Rat lumen perfused stomach (pentagastrin stimulated gastric acid secretion). Format: in vivo. The settings on record: iv, 10 μmole/kg. The source says:
B. Rat Lumen Perfused Stomach ([…] stimulated […] secretion) Using a modification of the procedure described by Ghosh & Schild (Br. J. Pharmacology, 13, 54, 1958), the compounds of the following examples were found on i.v. administration at a concentration of 10 μmole/kg to cause an inhibition of pentagastrin stimulated gastric acid secretion as follows: […]

In test [2] the target is T1, gastrointestinal H^+ K^+ ATPase (Sus scrofa, UniProt P19156).
T1 construct: Lyophilized gastric vesicles were prepared from pig fundic mucosa; from tissue; host or cells: pig fundic mucosa (lyophilized gastric vesicles)
Put plainly: K+-stimulated ATPase activity in lyophilized gastric vesicles (H/K-ATPase). The settings on record: lyophilized pig gastric vesicles, 37° C.; for IC50: K+-stimulated ATPase activity, pH 7.0, 30 minutes. It counts as biochemical. How it is done:
The effects of a single high concentration (100 μM) of a compound of structure (I) on K-stimulated ATPase activity in lyophilized gastric vesicles was determined. Preferred compounds of structure (I) were also tested over a range of concentrations to determine IC50 values. Lyophilized gastric vesicles were prepared from pig fundic mucosa after the method of Keeling et. al. (Biochem. Pharmacol., 34, 2967, 1985). K^+ -stimulated ATPase activity was determined at 37° C. in the presence of the following : 10 mM Pipes/Tris buffer pH 7.0, 2 mM MgSO4, 1 mM KCl, 2 mM Na2 ATP and 3-6 μg protein/ml lyophilized gastric vesicles. After incubation for 30 minutes, the inorganic phosphate hydrolyzed from ATP was determined by the method of Yoda and Hokin (Biochem. Biophys. Res. Commun. 40, 880, 1970). Compounds of structure (I) were dissolved in dimethylsulphoxide which up to the highest concentration used had no effect on K^+ -stimulated ATPase activity. The effect of the highest concentration of each compound of structure (I) on the recovery of a standard amount of inorganic phosphate was also determined.

T1 sequence (P19156 2-1034 limits assumed): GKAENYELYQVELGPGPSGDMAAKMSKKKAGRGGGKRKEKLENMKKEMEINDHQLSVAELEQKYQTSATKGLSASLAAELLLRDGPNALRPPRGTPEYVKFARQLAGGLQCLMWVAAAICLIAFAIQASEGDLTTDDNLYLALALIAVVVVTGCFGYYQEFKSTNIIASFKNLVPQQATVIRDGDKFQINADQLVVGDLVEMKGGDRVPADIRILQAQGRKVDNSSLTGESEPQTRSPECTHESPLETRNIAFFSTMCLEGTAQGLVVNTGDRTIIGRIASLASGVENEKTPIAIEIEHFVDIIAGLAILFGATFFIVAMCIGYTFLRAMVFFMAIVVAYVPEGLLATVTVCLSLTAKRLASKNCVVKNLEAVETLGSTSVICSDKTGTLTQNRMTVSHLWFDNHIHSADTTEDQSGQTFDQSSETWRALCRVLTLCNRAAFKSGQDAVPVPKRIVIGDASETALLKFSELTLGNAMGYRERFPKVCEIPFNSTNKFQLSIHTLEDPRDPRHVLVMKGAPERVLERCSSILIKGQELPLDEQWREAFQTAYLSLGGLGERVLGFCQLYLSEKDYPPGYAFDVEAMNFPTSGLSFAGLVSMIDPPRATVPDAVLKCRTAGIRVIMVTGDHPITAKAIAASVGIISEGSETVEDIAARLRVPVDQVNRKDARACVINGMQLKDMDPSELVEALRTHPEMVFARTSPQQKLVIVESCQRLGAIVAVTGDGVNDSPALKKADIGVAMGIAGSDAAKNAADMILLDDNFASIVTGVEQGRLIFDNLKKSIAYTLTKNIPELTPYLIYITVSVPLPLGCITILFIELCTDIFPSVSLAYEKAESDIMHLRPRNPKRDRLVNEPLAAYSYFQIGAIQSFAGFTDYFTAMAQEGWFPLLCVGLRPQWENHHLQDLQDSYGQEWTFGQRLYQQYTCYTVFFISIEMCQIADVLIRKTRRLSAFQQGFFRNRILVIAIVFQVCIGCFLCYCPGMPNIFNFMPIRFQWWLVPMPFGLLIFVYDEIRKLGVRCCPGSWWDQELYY
T1 sequence (P18434 whole entry partner): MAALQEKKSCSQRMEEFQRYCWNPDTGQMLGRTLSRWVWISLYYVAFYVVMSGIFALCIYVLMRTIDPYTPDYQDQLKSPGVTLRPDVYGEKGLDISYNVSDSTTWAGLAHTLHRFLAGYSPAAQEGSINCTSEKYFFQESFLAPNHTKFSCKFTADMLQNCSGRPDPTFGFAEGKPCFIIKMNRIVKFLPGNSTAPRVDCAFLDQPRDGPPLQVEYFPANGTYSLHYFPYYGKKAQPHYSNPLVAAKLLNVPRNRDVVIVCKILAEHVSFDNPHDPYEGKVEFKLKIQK

Consider `CCCC(=O)c1cnc2c(C(C)O)cccc2c1Nc1ccc(O)cc1C` (stereo not shown) [Example 15, 3-butyryl-4-(4-hydroxy-2-methylphenylamino)-8-(1-hydroxyethyl)quinoline], for which, in test [1], the inhibition in vivo (usually the drop in the measured response relative to a control, in per cent) at 10 µmol/kg stood at 70%. Further, in test [2], the IC50 (commonly the midpoint of a concentration-inhibition curve) is 60 nM. The matching figures for `Cc1cc(O)ccc1Nc1c(C(=O)C(C)C)cnc2c(CO)cccc12` [Example 16, 3-isobutyryl-4-(4-hydroxy-2-methylphenylamino)-8-(hydroxymethyl)quinoline hydrochloride]: 91% and 40 nM. As to `CCCC(=O)c1cnc2c(OCCOCCO)cccc2c1Nc1ccc(F)cc1C` [Example 13, 3-butyryl-4-(4-fluoro-2-methylphenylamino)-8-(2-(2-hydroxyethoxy)ethoxy)quinoline], the inhibition in vivo at 10 µmol/kg in test [1] was 49%. Moreover, it took 4000 nM to reach half-maximal inhibition in test [2] (IC50). For `CCCC(=O)c1cnc2c(OCCO)cccc2c1Nc1ccc(F)cc1C` [Example 14, 3-butyryl-4-(4-fluoro-2-methylphenylamino)-8-(2-hydroxyethoxy)quinoline], in that order: 79% and 2700 nM. For `CCCC(=O)c1cnc2c(OCCOCCOCCO)cccc2c1Nc1ccccc1C` [Example 12, 3-butyryl-4-(2-methylphenylamino)-8-(2-(2-(2-hydroxyethoxy)ethoxy)ethoxy)quinoline], in that order: 57% and 2400 nM. Take `CCCC(=O)c1cnc2c(CO)cccc2c1Nc1ccc(F)cc1C` [Example 9, 3-butyryl-4-(4-fluoro-2-methylphenylamino)-8-(hydroxymethyl)quinoline]: the inhibition in vivo at 10 µmol/kg in test [1] is 55%. In addition, half-maximal inhibition in test [2] (IC50) was put at 2200 nM.

In the case of `Cc1ccccc1Nc1c(C(=O)C(C)C)cnc2c(CO)cccc12` [Example 7, 3-isobutyryl-4-(2-methylphenylamino)-8-(hydroxymethyl)quinoline], in test [1], the inhibition in vivo at 10 µmol/kg is 74%. Moreover, the IC50 in test [2] came to 820 nM.

On to `CCCC(=O)c1cnc2c(CO)cccc2c1Nc1ccc(O)cc1C` [Example 3, 3-butyryl-4-(4-hydroxy-2-methylphenylamino)-8-(hydroxymethyl)quinoline hydrochloride], for which the inhibition in vivo at 10 µmol/kg in test [1] was determined as 88%. In addition, the IC50 in test [2] was determined as 180 nM. The matching figures for `CCCC(=O)c1cnc2c(OCCO)cccc2c1Nc1ccccc1C` [Example 10, 3-butyryl-4-(2-methylphenylamino)-8-(2-hydroxyethoxy)quinoline]: 68% and 2400 nM. Molecule `CCCC(=O)c1cnc2ccc(CO)cc2c1Nc1ccccc1C` [Example 5, 3-butyryl-4-(2-methylphenylamino)-6-hydroxymethylquinoline] yielded an inhibition in vivo at 10 µmol/kg in test [1] of 46%. In test [2], this molecule came in with an IC50 of 4400 nM. `CCCC(=O)c1cnc2c(C(C)O)cccc2c1Nc1ccccc1C` (stereo not shown) [Example 4, 3-butyryl-4-(2-methylphenylamino)-8-(1-hydroxyethyl)quinoline] showed an inhibition in vivo at 10 µmol/kg in test [1] of 63%. This molecule also returned an IC50 in test [2] of 360 nM.

For the molecule `CCCC(=O)c1cnc2cc(CO)ccc2c1Nc1ccccc1C` [Example 6, 3-butyryl-4-(2-methylphenylamino)-7-hydroxymethylquinoline], in test [2] (@ 100 (μM), pH 7.0), the “% inhibition of K+-stimulated ATPase activity (printed in IC50 column as % @ 100)” value stood at 44%. The molecule `Cc1cc(F)ccc1Nc1c(C(=O)C(C)C)cnc2c(CO)cccc12` [Example 8, 3-isobutyryl-4-(4-fluoro-2-methylphenylamino)-8-(hydroxymethyl)quinoline] yielded an inhibition in vivo at 10 µmol/kg in test [1] of 76%. In test [2], this molecule registered an IC50 of 2100 nM.

As for `CCCC(=O)c1cnc2c(OCCOC)cccc2c1Nc1ccccc1C` [Example 2, 3-butyryl-4-(2-methylphenylamino)-8-(2-methoxyethoxy)quinoline], the inhibition in vivo at 10 µmol/kg in test [1] worked out at 67%. The same molecule showed an IC50 in test [2] of 2500 nM. With `CCCC(=O)c1cnc2c(OCCOCCO)cccc2c1Nc1ccccc1C` [Example 11, 3-butyryl-4-(2-methylphenylamino)-8-(2-(2-hydroxyethoxy)ethoxy)quinoline], in test [1], the inhibition in vivo at 10 µmol/kg was 77%. This molecule also gave an IC50 in test [2] of 2100 nM. In turn, `CCCC(=O)c1cnc2c(CO)cccc2c1Nc1ccccc1C` [Example 1, 3-butyryl-4-(2-methylphenylamino)-8-(hydroxymethyl)quinoline] came in with an inhibition in vivo at 10 µmol/kg in test [1] of 61%. In test [2], this molecule showed a concentration for half-maximal inhibition (IC50) of 840 nM.
